Laboratory results from patent US5834431A, “Des-Arg^9 -BK antagonists” (Cortech, Inc., priority 1995, dated 1998).
Square brackets hold non-standard residues; d marks the D form. Peptide text beside a SMILES is read from it. * marks the point of attachment. Oic = O=C(O)[C@@H]1C[C@@H]2CCCC[C@@H]2N1; X1 = N=C(N)NCCC[C@@H](NC(=N)N)C(=O)*; dIgl = N[C@@H](C(=O)O)C1Cc2ccccc2C1; Gly(cPent) = N[C@H](C(=O)O)C1CCCC1; Igl = N[C@H](C(=O)O)C1Cc2ccccc2C1; Hyp = O=C(O)[C@@H]1C[C@@H](O)CN1; Tic = O=C(O)[C@@H]1Cc2ccccc2CN1; dTic = O=C(O)[C@H]1Cc2ccccc2CN1; 2Thi = N[C@@H](Cc1cccs1)C(=O)O

Assays:
B2 receptor [1] = biological target: T1, B2 receptor (Cavia porcellus, UniProt O70526); assay: GPI binding B2; conditions: i.a. = inactive; for IC50: read-out: GPI Binding - pIC50 B2 (converted)
T1 construct: from tissue
T1 sequence (O70526 1-372): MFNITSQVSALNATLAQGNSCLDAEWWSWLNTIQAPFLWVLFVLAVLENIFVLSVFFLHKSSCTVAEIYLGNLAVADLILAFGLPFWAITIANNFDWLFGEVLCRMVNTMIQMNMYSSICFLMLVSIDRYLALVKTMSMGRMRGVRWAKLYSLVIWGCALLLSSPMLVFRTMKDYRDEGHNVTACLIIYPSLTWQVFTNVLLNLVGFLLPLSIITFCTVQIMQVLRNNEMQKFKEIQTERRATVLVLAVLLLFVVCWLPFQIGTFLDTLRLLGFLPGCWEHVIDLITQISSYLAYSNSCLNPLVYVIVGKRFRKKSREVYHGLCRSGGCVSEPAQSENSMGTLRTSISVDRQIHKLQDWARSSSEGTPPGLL

B2 receptor [2] = biological target: T2, B2 receptor (Homo sapiens, UniProt P30411); assay: Human B2 binding, human BK2 clone membranes, 3H-Bradykinin; conditions: 0.3 nM 3H-Bradykinin, i.a. = inactive; for IC50: read-out: Human Binding - pIC50 B2 (converted)
T2 construct: expressed in transfected cells
T2 sequence (P30411 1-391): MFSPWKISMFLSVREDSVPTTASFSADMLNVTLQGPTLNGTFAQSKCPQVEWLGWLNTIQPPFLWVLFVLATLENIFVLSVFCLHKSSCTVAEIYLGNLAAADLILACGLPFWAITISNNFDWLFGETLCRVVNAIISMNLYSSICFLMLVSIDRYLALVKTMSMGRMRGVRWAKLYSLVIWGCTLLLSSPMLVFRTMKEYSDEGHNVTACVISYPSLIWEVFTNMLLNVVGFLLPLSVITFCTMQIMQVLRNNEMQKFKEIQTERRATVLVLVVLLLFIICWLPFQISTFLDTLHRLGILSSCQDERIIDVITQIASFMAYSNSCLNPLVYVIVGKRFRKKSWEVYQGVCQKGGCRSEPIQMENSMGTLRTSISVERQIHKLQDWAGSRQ
Experimental: (§1) Human lung fibroblasts IMR-90 cells were obtained from ATCC and propagated in DMEM media in […] roller bottles until confluent. Three hours prior to harvesting, the cells were treated with Interleukin lb (200 pg/ml). Human BK2 clones were propagated in F12 media until confluent. Preparation of membranes for binding assays was carried out by scraping cells from roller bottles in ice cold PBS and centrifuging at 1000 ×g, at 4° C. for 15 minutes. The supernatant was discarded and pellet resuspended in Buffer A consisting of 25 mM TES(pH 6.8) with 2 uM 1,10-Phenanthroline, and centrifuged at 27,000 ×g for 15 min. this was then repeated. The final pellet was resuspended in Buffer B (Buffer A with 2 uM Captopril, 140 ug/Ml Bacitracin, 0.1%BSA), and stored in 1 ml aliquots, frozen at -20° C. until needed.
(§2) Binding assays were performed by incubating human clone membranes with 0.3 nM ^3 H-Bradykinin or IMR-90 membranes with 0.5 nM ^3 H-des-Arg^9 -Kallidin in the presence of the peptides in assay buffer (Buffer B with 1 mM Dithiotreitol), at room temperature, for 45 minutes. All test compound dilutions were in triplicate. Assays were harvested by quick filtration in a Tomtec Harvester 96, with ice cold wash buffer consisting of 10 mM Tris/HCl, pH 7.5, 100 mM NaCl, 0.02%BSA, onto Wallec printed glassfiber Filtermat "B", which had been pre-soaked with 0.1% PEI and previously air-dried. Filtermats were counted in 9.5 mls Wallec Beta-Plate Scint, in Wallec 1450 MicroBeta Counter.

B1 receptor = biological target: T3, B1 receptor (Homo sapiens, UniProt P46663); assay: Human B1 binding, IL-1b-treated IMR-90 membranes, 3H-des-Arg9-Kallidin; conditions: 0.5 nM 3H-des-Arg9-Kallidin, pIC50 = -log of molar IC50
T3 construct: Human lung fibroblasts IMR-90 cells were obtained from ATCC and propagated in DMEM media; host or cells: IMR-90 human lung fibroblasts, treated with interleukin 1b three hours before harvest; membranes
T3 sequence (P46663 1-353): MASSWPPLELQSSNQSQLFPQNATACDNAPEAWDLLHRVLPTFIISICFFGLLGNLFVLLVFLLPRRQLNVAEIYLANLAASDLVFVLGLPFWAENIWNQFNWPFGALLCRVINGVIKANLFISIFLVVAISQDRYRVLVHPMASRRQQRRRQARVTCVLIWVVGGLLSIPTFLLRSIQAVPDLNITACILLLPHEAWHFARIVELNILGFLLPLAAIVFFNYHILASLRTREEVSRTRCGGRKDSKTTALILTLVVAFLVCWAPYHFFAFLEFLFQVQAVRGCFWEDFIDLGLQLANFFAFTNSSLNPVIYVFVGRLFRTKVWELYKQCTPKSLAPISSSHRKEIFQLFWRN
Experimental: as §1
as §2, with “air-dried.” for “air-dried. Filtermats were counted in 9.5 mls Wallec Beta-Plate Scint, in Wallec 1450 MicroBeta Counter.”

[3] = biological target: T4, BK1 (hypotensive response to desArg9BK) (Canis lupus familiaris, UniProt Q9BDQ5); assay: In vivo inhibition of hypotensive response to desArg9BK in anaesthetized dogs; design: species or system Mongrel dogs; conditions: dog, infusion; dose of antagonist to inhibit hypotensive response to desArg9BK by 50%
T4 construct: Mongrel dogs of either sex, weight range 10-15 kg were used; from tissue; host or cells: whole anaesthetized mongrel dog (in vivo blood pressure)
T4 sequence (Q9BDQ5 1-350): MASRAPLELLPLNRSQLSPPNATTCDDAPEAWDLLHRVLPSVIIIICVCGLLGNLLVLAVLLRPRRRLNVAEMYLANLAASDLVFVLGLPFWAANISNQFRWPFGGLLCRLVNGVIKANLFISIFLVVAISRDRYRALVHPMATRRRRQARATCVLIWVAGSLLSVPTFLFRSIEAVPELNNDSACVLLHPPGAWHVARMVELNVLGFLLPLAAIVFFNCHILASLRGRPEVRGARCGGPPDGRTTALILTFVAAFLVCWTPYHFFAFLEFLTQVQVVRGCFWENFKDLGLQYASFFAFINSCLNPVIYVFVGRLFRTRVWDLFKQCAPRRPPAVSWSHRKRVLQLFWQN
Experimental: Mongrel dogs of either sex, weight range 10-15 kg were used. These were anaesthesized with pentobarbitone, 30 mg/kg i.v. and catheters placed in one femoral artery and both femoral veins for the recording of blood pressure and infusion and injection of compounds. […] After the end of the infusion of the highest dose of the antagonist compound, BK and des-Arg^9 -BK were injected at intervals for up to four hours.

Row | SMILES | IC50 (B2 receptor [1]) [µM] | IC50 (B2 receptor [2]) [µM] | IC50 (B1 receptor) [µM] | GPI Binding - pIC50 B2 (B2 receptor [1]) | Human Binding - pIC50 B2 (B2 receptor [2]) | BK1 ED50 [3] [µg/kg/min]
1 | N=C(N)NCCC[C@@H](N)C(=O)N[C@@H](CCCNC(=N)N)C(=O)N1CCC[C@H]1C(=O)N1C[C@H](O)C[C@H]1C(=O)NCC(=O)N[C@H](C(=O)N[C@@H](CO)C(=O)N1Cc2ccccc2C[C@H]1C(=O)N[C@H](C(=O)O)C1CCCC1)C1CCCC1 [B9004, DArg-Arg-Pro-Hyp-Gly-Cpg-Ser-Tic-Cpg] (H-[dR]RP[Hyp]G[Gly(cPent)]S[Tic][Gly(cPent)]-OH) | 6.31 | 1.58 | 0.00316 | – | – | –
2 | N=C(N)NCCC[C@@H](N)C(=O)N[C@@H](CCCNC(=N)N)C(=O)N1CCC[C@H]1C(=O)N1C[C@H](O)C[C@H]1C(=O)NCC(=O)N[C@@H](Cc1cccs1)C(=O)N[C@@H](CO)C(=O)N1Cc2ccccc2C[C@H]1C(=O)N[C@H](C(=O)O)C1CCCC1 [B9006, DArg-Arg-Pro-Hyp-Gly-Thi-Ser-Tic-Cpg] (H-[dR]RP[Hyp]G[2Thi]S[Tic][Gly(cPent)]-OH) | 10 | 0.631 | 0.0126 | – | – | –
3 | N=C(N)NCCC[C@@H](N)C(=O)N[C@@H](CCCNC(=N)N)C(=O)N1CCC[C@H]1C(=O)N1C[C@H](O)C[C@H]1C(=O)NCC(=O)N[C@@H](Cc1cccs1)C(=O)N[C@@H](CO)C(=O)N1Cc2ccccc2C[C@@H]1C(=O)N[C@H](C(=O)O)C1CCCC1 [B9068, DArg-Arg-Pro-Hyp-Gly-Thi-Ser-DTic-Cpg] (H-[dR]RP[Hyp]G[2Thi]S[dTic][Gly(cPent)]-OH) | 7.94 | 2 | 0.00158 | – | – | –
4 | CC(C)C[C@H](NC(=O)[C@@H]1CCCN1C(=O)[C@H](CO)NC(=O)[C@H](Cc1ccccc1)NC(=O)CNC(=O)[C@@H]1CCCN1C(=O)[C@@H]1CCCN1C(=O)[C@H](CCCNC(=N)N)NC(=O)[C@H](CCCCN)NC(=O)CNC(=N)N)C(=O)O [B9810] | – | – | – | i.a | i.a | –
5 | CC(C)C[C@H](NC(=O)[C@H](NC(=O)[C@H](CO)NC(=O)[C@@H](NC(=O)CNC(=O)[C@@H]1C[C@@H](O)CN1C(=O)[C@@H]1CCCN1C(=O)[C@@H](N)CCCNC(=N)N)C1Cc2ccccc2C1)C1Cc2ccccc2C1)C(=O)O [B9814, Arg-Pro-Hyp-Gly-Igl-Ser-DIgl-Leu] (H-RP[Hyp]G[Igl]S[dIgl]L-OH) | – | – | 0.00631 | i.a | i.a | –
6 | CC(C)C[C@H](NC(=O)[C@H](NC(=O)[C@H](CO)NC(=O)[C@@H](NC(=O)CNC(=O)[C@@H]1C[C@@H](O)CN1C(=O)[C@@H]1CCCN1C(=O)[C@H](CCCNC(=N)N)NC(=O)[C@H](N)CCCNC(=N)N)C1Cc2ccccc2C1)C1Cc2ccccc2C1)C(=O)O [B9816, DArg-Arg-Pro-Hyp-Gly-Igl-Ser-DIgl-Leu] (H-[dR]RP[Hyp]G[Igl]S[dIgl]L-OH) | 2 | 0.631 | 0.00126 | – | – | –
7 | N=C(N)NCCC[C@H](NC(=O)[C@@H](CCCNC(=N)N)NC(=N)N)C(=O)N1CCC[C@H]1C(=O)N1C[C@H](O)C[C@H]1C(=O)NCC(=O)N[C@@H](Cc1cccs1)C(=O)N[C@@H](CO)C(=O)N[C@@H](C(=O)N1[C@H](C(=O)O)C[C@@H]2CCCC[C@@H]21)C1Cc2ccccc2C1 [B9826, Gun- DArg-Arg-Pro-Hyp-Gly-Thi-Ser-DIgl-Oic] (X1-RP[Hyp]G[2Thi]S[dIgl][Oic]-OH) | 0.0794 | 0.00794 | 0.000126 | – | – | –
8 | N=C(N)NCCC[C@@H](N)C(=O)N[C@@H](CCCNC(=N)N)C(=O)N1CCC[C@H]1C(=O)N1C[C@H](O)C[C@H]1C(=O)NCC(=O)N[C@H](C(=O)N[C@@H](CO)C(=O)N1Cc2ccccc2C[C@@H]1C(=O)N[C@H](C(=O)O)C1CCCC1)C1Cc2ccccc2C1 [B9840, DArg-Arg-Pro-Hyp-Gly-Igl-Ser-DTic-Cpg] (H-[dR]RP[Hyp]G[Igl]S[dTic][Gly(cPent)]-OH) | – | 0.631 | 0.000794 | i.a | – | –
9 | N=C(N)NCCC[C@H](NC(=O)[C@@H](N)CCCCN)C(=O)N1CCC[C@H]1C(=O)N1C[C@H](O)C[C@H]1C(=O)NCC(=O)N[C@H](C(=O)N[C@@H](CO)C(=O)N1Cc2ccccc2C[C@@H]1C(=O)N[C@H](C(=O)O)C1CCCC1)C1Cc2ccccc2C1 [B9842, Lys-Arg-Pro-Hyp-Gly-Igl-Ser-DTic-Cpg] (H-KRP[Hyp]G[Igl]S[dTic][Gly(cPent)]-OH) | – | 0.631 | 0.000251 | i.a. | – | –
10 | N=C(N)NCCC[C@H](NC(=O)[C@H](CCCCN)NC(=O)[C@@H](N)CCCCN)C(=O)N1CCC[C@H]1C(=O)N1C[C@H](O)C[C@H]1C(=O)NCC(=O)N[C@H](C(=O)N[C@@H](CO)C(=O)N[C@@H](C(=O)N1[C@H](C(=O)O)C[C@@H]2CCCC[C@@H]21)C1Cc2ccccc2C1)C1Cc2ccccc2C1 [B9858, Lys- Lys-Arg-Pro-Hyp-Gly-Igl-Ser-DIgl-Oic] | 0.126 | 0.02 | – | – | – | 0.03 ± 0.01
